Measured values taken from the supplement of paper PMC11451515.

Test system: P12-Ichikawa
Experiment: cell viability relative to DMSO control; higher = less cytotoxic
Details: 48 h
Method in brief: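 Viability is expressed as a percentage of DMSO wells within each plate, and cell-free wells serve as background. Seeding densities in the 1536-well plates (5 μl) were 500 cells/well for NOMO1 or SEM leukemia cells and 1000 cells/well for P12-Ichikawa. Each line was adapted for at least four passages in each medium. Library compounds in DMSO were pin-dosed at 47 μM to 0.79 nM (11 points, threefold), and CellTiter-Glo One luminescence was read after 48 h at 37°C.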

[1] = HPLM + 10% dialyzed FBS, 0.000781 µM
[2] = HPLM + 10% dialyzed FBS, 0.00234 µM
[3] = HPLM + 10% dialyzed FBS, 0.00702 µM
[4] = HPLM + 10% dialyzed FBS, 0.0211 µM
[5] = HPLM + 10% dialyzed FBS, 0.0632 µM
[6] = HPLM + 10% dialyzed FBS, 0.19 µM
[7] = HPLM + 10% dialyzed FBS, 0.569 µM
[8] = HPLM + 10% dialyzed FBS, 1.71 µM
[9] = HPLM + 10% dialyzed FBS, 5.12 µM
[10] = HPLM + 10% dialyzed FBS, 15.4 µM
[11] = HPLM + 10% dialyzed FBS, 46.1 µM
[12] = RPMI 5 mM glucose + 10% FBS, 0.000781 µM
[13] = RPMI 5 mM glucose + 10% FBS, 0.00234 µM
[14] = RPMI 5 mM glucose + 10% FBS, 0.00702 µM
[15] = RPMI 5 mM glucose + 10% FBS, 0.0211 µM
[16] = RPMI 5 mM glucose + 10% FBS, 0.0632 µM
[17] = RPMI 5 mM glucose + 10% FBS, 0.19 µM
[18] = RPMI 5 mM glucose + 10% FBS, 0.569 µM
[19] = RPMI 5 mM glucose + 10% FBS, 1.71 µM
[20] = RPMI 5 mM glucose + 10% FBS, 5.12 µM
[21] = RPMI 5 mM glucose + 10% FBS, 15.4 µM
[22] = RPMI 5 mM glucose + 10% FBS, 46.1 µM
[23] = RPMI 5 mM glucose + 10% dialyzed FBS, 0.000781 µM
[24] = RPMI 5 mM glucose + 10% dialyzed FBS, 0.00234 µM
[25] = RPMI 5 mM glucose + 10% dialyzed FBS, 0.00702 µM
[26] = RPMI 5 mM glucose + 10% dialyzed FBS, 0.0211 µM
[27] = RPMI 5 mM glucose + 10% dialyzed FBS, 0.0632 µM
[28] = RPMI 5 mM glucose + 10% dialyzed FBS, 0.19 µM
[29] = RPMI 5 mM glucose + 10% dialyzed FBS, 0.569 µM
[30] = RPMI 5 mM glucose + 10% dialyzed FBS, 1.71 µM
[31] = RPMI 5 mM glucose + 10% dialyzed FBS, 5.12 µM
[32] = RPMI 5 mM glucose + 10% dialyzed FBS, 15.4 µM
[33] = RPMI 5 mM glucose + 10% dialyzed FBS, 46.1 µM

Compound | cell viability [1] | cell viability [2] | cell viability [3] | cell viability [4] | cell viability [5] | cell viability [6] | cell viability [7] | cell viability [8] | cell viability [9] | cell viability [10] | cell viability [11] | cell viability [12] | cell viability [13] | cell viability [14] | cell viability [15] | cell viability [16] | cell viability [17] | cell viability [18] | cell viability [19] | cell viability [20] | cell viability [21] | cell viability [22] | cell viability [23] | cell viability [24] | cell viability [25] | cell viability [26] | cell viability [27] | cell viability [28] | cell viability [29] | cell viability [30] | cell viability [31] | cell viability [32] | cell viability [33]
CC(C)(O)CC[C@@H](O)[C@](C)(O)[C@H]1CC[C@@]2(O)C/3=C/C(=O)[C@@H]4C[C@@H](O)[C@@H](O)C[C@]4(C)[C@H]3CC[C@]12C | 100% | 103% | 94.5% | 96.6% | 102% | 98.4% | 88.6% | 93.6% | 89.2% | 89.6% | 87.4% | 90.7% | 96.3% | 93.4% | 96.3% | 86.7% | 104% | 92.2% | 94.1% | 88% | 86% | 96.8% | 95% | 90.6% | 90.8% | 89% | 94.6% | 89.2% | 88.8% | 86.9% | 91.2% | 83.3% | 89.4%
CCC1(c2ccccc2)C(=O)NCNC1=O | 103% | 114% | 118% | 120% | 120% | 118% | 121% | 119% | 116% | 118% | 119% | 104% | 111% | 122% | 128% | 134% | 127% | 129% | 126% | 142% | 143% | 131% | 94.5% | 109% | 118% | 115% | 120% | 116% | 117% | 118% | 126% | 121% | 117%
CNC(=O)c1ccc(N2C(=S)N(c3cnc(C#N)c(C(F)(F)F)c3)C(=O)C23CCC3)cc1F | 94.2% | 109% | 109% | 109% | 112% | 111% | 111% | 114% | 109% | 95% | 96.3% | 86.7% | 95.7% | 97.5% | 106% | 109% | 107% | 117% | 113% | 111% | 92.8% | 96.1% | 90.5% | 111% | 118% | 118% | 118% | 119% | 116% | 123% | 126% | 128% | 101%
NNCCc1ccccc1 | 116% | 123% | 118% | 115% | 118% | 116% | 115% | 113% | 113% | 106% | 95.3% | 120% | 115% | 120% | 117% | 110% | 119% | 129% | 128% | 109% | 106% | 91.9% | 109% | 116% | 116% | 110% | 123% | 111% | 112% | 116% | 113% | 107% | 96.9%
S=C(NCc1ccc2c(c1)OCO2)N1CCN(c2ncnc3c2oc2ccccc23)CC1 | 115% | 111% | 114% | 106% | 111% | 102% | 105% | 95.6% | 69.5% | 65.2% | 33.2% | 105% | 106% | 108% | 103% | 111% | 102% | 96.2% | 74.1% | 52.7% | 54% | 29.6% | 114% | 110% | 115% | 106% | 107% | 108% | 99% | 77.8% | 60.4% | 64.6% | 35.3%
C[C@](O)(CS(=O)(=O)c1ccc(F)cc1)C(=O)Nc1ccc(C#N)c(C(F)(F)F)c1 | 97.6% | 115% | 110% | 120% | 115% | 115% | 124% | 119% | 118% | 114% | 107% | 104% | 110% | 112% | 109% | 111% | 108% | 114% | 110% | 126% | 119% | 105% | 102% | 118% | 126% | 130% | 122% | 120% | 132% | 120% | 130% | 113% | 101%
COc1cc(OC2CCN(C)CC2)ccc1Nc1ncc2c(n1)n(C1CCCC1)c(=O)n2C | 83.2% | 85.4% | 83% | 91.2% | 91.6% | 97.9% | 88.5% | 92.8% | 99.6% | 86.2% | 2.55% | 74.9% | 93.8% | 82.7% | 88.2% | 85.8% | 81.4% | 91.6% | 81.3% | 87.2% | 69.9% | 5.17% | 76.7% | 80.6% | 76.3% | 85.5% | 86.1% | 80.4% | 86.5% | 83% | 85.6% | 61.4% | 0.821%
CC[C@]12CC[C@H]3[C@@H](CCC/4=C/C(=O)CC[C@H]34)[C@@H]1\C=C/[C@@]2(O)C#C | 109% | 124% | 124% | 125% | 132% | 129% | 128% | 120% | 122% | 123% | 119% | – | – | – | – | – | – | – | – | – | – | – | 106% | 110% | 121% | 115% | 119% | 114% | 124% | 123% | 118% | 113% | 116%
